Measurements taken from patent US9266904B2, “6-bridged heteroaryldihydropyrimidines for the treatment and prophylaxis of hepatitis B virus infection” (priority 2013, dated 2016).
In brackets after ≈: the same amount, converted by molar mass.

What was measured:
[1] = test system: HBV replication in HepG2.2.15 cells; experiment: Anti-HBV activity in vitro in HepG2.2.15 cells (extracellular HBV DNA by qPCR); format: cell-based; settings: Hepatitis B virus, HepG2.2.15, Anti-HBV activity in HepG2.2.15 cells; read-out: EC50
Procedure, shortened: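 Constitutively HBV-producing HepG2.2.15 cells were seeded overnight at 37 °C, then treated with half-log serial dilutions of compound (0.5% DMSO final) for five days. Supernatant HBV DNA was extracted and quantified by qPCR; EC50 is the concentration inhibiting HBV replication by 50%.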

[2] = Human microsomal clearance assay; format: in vitro ADME; settings: human, 1 μM, pH 7.4
Procedure: Microsomes were preincubated with test compound for 10 minutes at 37° C. in 100 mM phosphate buffer with pH 7.4. The reactions were initiated by adding NADPH regenerating system to give a final incubation volume of 400 μL. The incubations finally contained 1 μM test compound, 0.5 mg/mL liver microsomal protein, 3.0 mM glucose 6-phosphate, 1.0 mM NADP, 3.0 mM MgCl2 and 0.05 mg/mL glucose 6-phosphate dehydrogenase in 100 mM phosphate buffer with pH 7.4. After incubation times of 0, 3, 6, 9, 15 and 30 minutes, 50 μL, incubation was transferred to the quench solution containing the internal standard which was 2 μM tolbutamide. After precipitation and centrifugation, test compound concentrations in the samples were determined by LC-MS/MS. Controls of no NADPH regenerating system at zero and 30 minutes were also prepared and analyzed.

[3] = Lyophilisation solubility assay (Lysa); format: physicochemical; settings: pH 6.5, aqueous buffer, thermodynamic from solid
Procedure: The aqueous solubility is an important physico-chemical property that plays a significant role in various physical and biological processes. It is desirable to have good solubility which enables good permeability and gastric and intestinal absorption, linear dose proportionality, less PK variability, and easy formulation for PD/PK studies. […] Lyophilisation solubility assay (Lysa) is a well adopted high throughput assay to measure compound solubility in industry.
Samples are prepared in duplicate from 10 mM DMSO stock solutions. After evaporation of DMSO with a centrifugal vacuum evaporator, the residue is solved in 0.05 M phosphate buffer (pH 6.5), stirred for one hour and then shook for two hours. After one night, the solution is filtered using a microtiter filter plate and then the filtrate and its 1/10 dilution are then analyzed by direct UV measurement or by HPLC-UV. In addition a four-point calibration curve is prepared from the 10 mM stock solutions and used for the solubility determination of the compounds. The results are in μg/ml. In case the percentage of sample measured in solution after evaporation divided by the calculated maximum of sample amount is bigger than 80% the solubility is reported as bigger than this value.

| SMILES | EC50 [1] | CLh [2] | solubility thermodynamic [3] |
| --- | --- | --- | --- |
| CCOC(=O)C1=C(CN2C3COCC2C(OCC(=O)O)C3)NC(c2nccs2)=N[C@H]1c1ccc(F)cc1Br (mixture of isomers) [Example 50, 2-[[8-[[(4R)-4-(2-bromo-4-fluoro-phenyl)-5-ethoxycarbonyl-2-thiazol-2-yl-1,4-dihydropyrimidin-6-yl]methyl]-3-oxa-8-azabicyclo[3.2.1]octan-6-yl]oxy]acetic acid] | 24.1 nM | 1.4 mL/min/kg | > 724 µg/mL |
| COC(=O)C1=C(CN2C3COCC2CC(C(=O)O)C3)NC(c2nccs2)=N[C@H]1c1ccc(F)cc1Cl (stereo partly drawn) [Example 1, 9-[[(4R)-4-(2-chloro-4-fluoro-phenyl)-5-methoxycarbonyl-2-thiazol-2-yl-1,4-dihydropyrimidin-6-yl]methyl]-3-oxa-9-azabicyclo[3.3.1]nonane-7-carboxylic acid] | 59 nM | 3.0 mL/min/kg | 540 µg/mL (≈ 1010 µM) |
| COC(=O)C1=C(CN2C3COCC2CC(C(=O)O)C3)NC(c2nc(C)cs2)=N[C@H]1c1ccc(F)cc1Cl (stereo partly drawn) [Example 2, 9-[(R)-6-(2-Chloro-4-fluoro-phenyl)-5-methoxycarbonyl-2-(4-methyl-thiazol-2-yl)-3,6-dihydro-pyrimidin-4-ylmethyl]-3-oxa-9-aza-bicyclo[3.3.1]nonane-7-carboxylic acid] | 114 nM | 3.2 mL/min/kg | 450 µg/mL (≈ 820 µM) |
| COC(=O)C1=C(CN2C3COCC2CC(C(=O)O)C3)NC(c2nccs2)=NC1c1ccc(F)c(F)c1 (stereo not shown) [Example 3, 9-[6-(3,4-Difluoro-phenyl)-5-methoxycarbonyl-2-thiazol-2-yl-3,6-dihydro-pyrimidin-4-ylmethyl]-3-oxa-9-aza-bicyclo[3.3.1]nonane-7-carboxylic acid] | 400 nM | 0 mL/min/kg | > 678 µg/mL |
| COC(=O)C1=C(CN2C3COCC2CC(C(=O)O)C3)NC(c2nccs2)=N[C@H]1c1ccc(F)cc1Br (stereo partly drawn) [Example 5, 9-[(R)-6-(2-Bromo-4-fluoro-phenyl)-5-methoxycarbonyl-2-thiazol-2-yl-3,6-dihydro-pyrimidin-4-ylmethyl]-3-oxa-9-aza-bicyclo[3.3.1]nonane-7-carboxylic acid] | 21 nM | 0 mL/min/kg | > 660 µg/mL |
| COC(=O)C1=C(CN2C3COCC2C(C(=O)O)C3)NC(c2nccs2)=N[C@H]1c1ccc(F)cc1Cl (stereo partly drawn) [Example 6, 8-[(R)-6-(2-Chloro-4-fluoro-phenyl)-5-methoxycarbonyl-2-thiazol-2-yl-3,6-dihydro-pyrimidin-4-ylmethyl]-3-oxa-8-aza-bicyclo[3.2.1]octane-6-carboxylic acid] | 32 nM | 0.5 mL/min/kg | > 665 µg/mL |
| CCOC(=O)C1=C(CN2C3COCC2CC(CC(=O)O)C3)NC(c2nccs2)=N[C@H]1c1ccc(F)c(F)c1 (stereo partly drawn) [Example 29, (S)-6-(7-Carboxymethyl-3-oxa-9-aza-bicyclo[3.3.1]non-9-ylmethyl)-4-(3,4-difluoro-phenyl)-2-thiazol-2-yl-1,4-dihydro-pyrimidine-5-carboxylic acid ethyl ester] | 34.3 nM | 1.7 mL/min/kg | > 600 µg/mL |
| COC(=O)C1=C(CN2C3CSCC2CC(CC(=O)O)C3)NC(c2nccs2)=N[C@H]1c1ccc(F)cc1Cl (stereo partly shown) [Example 42, 6-(7-Carboxymethyl-3-thia-9-aza-bicyclo[3.3.1]non-9-ylmethyl)-4-(2-chloro-4-fluoro-phenyl)-2-thiazol-2-yl-1,4-dihydro-pyrimidine-5-carboxylic acid methyl ester] | 54.5 nM |  | 188 µg/mL (≈ 333 µM) |
| COC(=O)C1=C(CN2[C@@H]3CC[C@H]2C[C@@H](O)C3)NC(c2nccs2)=N[C@H]1c1ccc(F)cc1Cl [Example 44, (R)-4-(2-Chloro-4-fluoro-phenyl)-6-((1R,3R,5S)-3-hydroxy-8-aza-bicyclo[3.2.1]oct-8-ylmethyl)-2-thiazol-2-yl-1,4-dihydro-pyrimidine-5-carboxylic acid methyl ester] |  | 7.1 mL/min/kg | > 623 µg/mL |
